According to ChEMBL document CHEMBL3132795, “Synthesis, functional and binding profile of (R)-apomorphine based homobivalent ligands targeting the dopamine D2 receptor” (Medchemcomm, 2013):
pEC50, pIC50: −log10 of the molar value.

What was measured:
[1] = molecular target: T1, D(2) dopamine receptor (Homo sapiens, UniProt P14416); experiment: Agonist activity at human recombinant dopamine D2L receptor expressed in CHOFlpIn cells assessed as ERK1/2 phosphorylation by alphascreen assay; type: cell-based
[2] = molecular target: T1, D(2) dopamine receptor; experiment: Displacement of [3H]spiperone from human recombinant dopamine D2L receptor expressed in CHOFlpIn cells after 3 hrs by liquid scintillation counting; type: cell-based

T1 sequence (P14416 whole entry): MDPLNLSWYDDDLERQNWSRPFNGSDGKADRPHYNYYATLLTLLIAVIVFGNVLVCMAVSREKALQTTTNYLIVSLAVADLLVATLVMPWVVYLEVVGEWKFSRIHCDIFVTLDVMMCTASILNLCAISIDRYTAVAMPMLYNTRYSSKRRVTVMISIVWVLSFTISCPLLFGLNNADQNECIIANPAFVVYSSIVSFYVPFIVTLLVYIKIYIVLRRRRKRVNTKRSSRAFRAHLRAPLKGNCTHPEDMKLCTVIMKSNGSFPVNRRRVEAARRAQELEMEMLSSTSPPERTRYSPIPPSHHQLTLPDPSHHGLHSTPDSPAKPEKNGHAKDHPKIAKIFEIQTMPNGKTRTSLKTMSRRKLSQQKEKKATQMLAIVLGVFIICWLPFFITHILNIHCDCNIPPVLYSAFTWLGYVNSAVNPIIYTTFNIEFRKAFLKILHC

Compound | pEC50 [1] | pIC50 [2]
CN1CCc2cccc3c2[C@H]1Cc1ccc(OCCCN)c(O)c1-3 | 8.00 | –
CC(=O)NCCCOc1ccc2c(c1O)-c1cccc3c1[C@@H](C2)N(C)CC3 | 6.88 | –
CN1CCc2cccc3c2[C@H]1Cc1ccc(OCCCNC(=O)CCCCCNC(=O)OC(C)(C)C)c(O)c1-3 | 6.58 | 5.18
CN1CCc2cccc3c2[C@H]1Cc1ccc(OCCCNC(=O)CCC(=O)NCCCOc2ccc4c(c2O)-c2cccc5c2[C@@H](C4)N(C)CC5)c(O)c1-3 | 6.40 | 5.36
CN1CCc2cccc3c2[C@H]1Cc1ccc(OCCCNC(=O)CCCCC(=O)NCCCOc2ccc4c(c2O)-c2cccc5c2[C@@H](C4)N(C)CC5)c(O)c1-3 | 6.83 | 5.27
CN1CCc2cccc3c2[C@H]1Cc1ccc(OCCCNC(=O)CCCCCCC(=O)NCCCOc2ccc4c(c2O)-c2cccc5c2[C@@H](C4)N(C)CC5)c(O)c1-3 | 6.38 | 5.44
CN1CCc2cccc3c2[C@H]1Cc1ccc(OCCCNC(=O)CCCCCCCCC(=O)NCCCOc2ccc4c(c2O)-c2cccc5c2[C@@H](C4)N(C)CC5)c(O)c1-3 | 7.10 | 5.87
CN1CCc2cccc3c2[C@H]1Cc1ccc(OCCCNC(=O)CCCCCCCCCCC(=O)NCCCOc2ccc4c(c2O)-c2cccc5c2[C@@H](C4)N(C)CC5)c(O)c1-3 | 6.96 | 6.74
CN1CCc2cccc3c2[C@H]1Cc1ccc(OCCCNC(=O)CCCCCCCCCCCCC(=O)NCCCOc2ccc4c(c2O)-c2cccc5c2[C@@H](C4)N(C)CC5)c(O)c1-3 | 6.65 | –
CN1CCc2cccc3c2[C@H]1Cc1ccc(OCCCNC(=O)CCCCCCCCCCCCCCCCC(=O)NCCCOc2ccc4c(c2O)-c2cccc5c2[C@@H](C4)N(C)CC5)c(O)c1-3 | 6.41 | 5.57
CN1CCc2cccc3c2[C@H]1Cc1ccc(OCCCNC(=O)CCCCCCCCCCCCCCCCCCC(=O)NCCCOc2ccc4c(c2O)-c2cccc5c2[C@@H](C4)N(C)CC5)c(O)c1-3 | 6.61 | 5.81
